Data set [1] is described as follows: In vitro cytotoxicity assay, HeLa cells (resazurin cell viability). The format is cell-based. The settings on record: human. As for the experimental part: (§1) A single concentration (20 µM) cytotoxicity evaluation of all compounds was conducted in duplicates using a human cervix adenocarcinoma (HeLa) cell line, with emetine (EMT) included as a reference drug and cell viability relative to untreated cells assessed using resazurin. […] The anti-trypanosomal activity of prepared compounds against nagana T. b. brucei (the subspecies responsible for African trypanosomiasis in cattle) parasite cultures were determined using the T. b. brucei 427 strain. Pentamidine (PMD), which is an existing drug for the treatment of trypanosomiasis, was included as a positive control drug. The trypanocidal activity of each compound was initially assessed at a fixed concentration of 20 μM, using resazurin as a read-out of cell viability after compound exposure. […] From Table 1, the structural modification was initially performed on the arylpyrrole moiety (ring B) of the chalcones, while keeping the ring A unchanged. […] Introduction of the fluorine, highly electronegative atom, at the para-position (10b) appeared to enhance the activity against T. b. brucei; however, the activity diminished when the fluorine was replaced by chlorine (10c).
HeLa cells (Cellonex, Johannesburg, South Africa) seeded in 96-well plates were incubated with 20 µM test compounds and cell viability assessed with resazurin, as previously described. Fluorescence readings (excitation 560 nm, emission 590 nm) obtained for the individual wells were converted to % cell viability relative to the average readings obtained from untreated control wells. Plots of % cell viability vs. log[compound] were used to determine IC50 values by non-linear regression using GraphPad Prism (v. 5.02).
On the technique in general: Resazurin is reduced to fluorescent resorufin, in cell work by metabolically active cells.

Data set [2] concerns Trypanosoma brucei brucei 427 trypomastigotes. Put plainly: In vitro antitrypanosomal assay (resazurin parasite viability). In kind it is cell-based. To be noted: T. b. brucei 427 strain; for IC50: Trypanosoma brucei. As for the experimental part:
as §1
Trypanosoma brucei brucei 427 trypomastigotes were cultured in Iscove’s Modified Dulbecco’s medium (IMDM, Lonza, Basel Switzerland) and supplemented with 10% fetal calf serum, HMI-9 supplement, hypoxanthine and penicillin/streptomycin at 37 °C in a 5% CO2 incubator. Serial dilutions of test compounds were incubated with the parasites in 96-well plates for 24 h, and residual parasite viability in the wells determined by adding 20 µL resazurin toxicology reagent (Sigma-Aldrich) and incubating for an additional 24 h. Reduction of resazurin to resorufin by viable parasites was assessed by fluorescence readings (excitation 560 nm, emission 590 nm) in a Spectramax M3 plate reader (Molecular Devices, San Jose, CA, USA). Fluorescence readings were converted to % parasite viability relative to the average readings obtained from untreated control wells. IC50 values were determined by plotting % viability vs. log[compound] and performing non-linear regression using GraphPad Prism (v. 5.02) software.

Setting [3] is: 48 h, 24 h compound incubation + 24 h resazurin, na = not active (cell viability ≥50% in preliminary single point assay at 20 μM), read-out: T. b. brucei IC50.
Setting [4] is: 24 h compound incubation + 24 h resazurin, na = not active (cell viability ≥50% in preliminary single point assay at 20 μM).

Structures are written as SMILES. Like-named read-outs stand apart in the source and are kept apart here.

These results are taken from article PMC7181280, “Synthesis, Structure and In Vitro Anti-Trypanosomal Activity of Non-Toxic Arylpyrrole-Based Chalcone Derivatives” (Molecules, 2020).

On to `CC[C@H]1CN2CCc3cc(OC)c(OC)cc3[C@@H]2C[C@@H]1C[C@H]1NCCc2cc(OC)c(OC)cc21` [EMT, emetine, reference compound], for which the IC50 in data set [1] (HeLa cells, resazurin, read-out: HeLa cytotoxicity of reference drug (printed in the %Viability column with unit μM)) is 0.76 µM.

Broadly, the melting point is the temperature, or range, at which the solid turns liquid. As a reminder, the viability is a per cent measure of how many cells are alive, often set against a control. In the case of `Cc1cc(/C=C/C(=O)c2ccc([N+](=O)[O-])cc2)c(C)n1-c1ccc([N+](=O)[O-])cc1` [Compound 17, (E)-3-(2,5-Dimethyl-1-(4-nitrophenyl)-1H-pyrrol-3-yl)-1-(4-nitrophenyl)prop-2-en-1-one], the melting point was in the range of 175 to 178 °C. Besides, the viability at 20 µM in data set [1] (single concentration 20 µM, duplicates, relative to untreated cells, read-out: HeLa %Viability (residual percentage viability)) was greater than 100%.

With `Cc1cc(/C=C/C(=O)c2ccc(F)cc2)c(C)n1-c1ccc([N+](=O)[O-])cc1` [Compound 14, (E)-3-(2,5-Dimethyl-1-(4-nitrophenyl)-1H-pyrrol-3-yl)-1-(4-fluorophenyl)prop-2-en-1-one], the melting point fell in the range of 160 to 164 °C. Further, the IC50 in data set [2] (setting [3]) came out at 36.5 µM. Moreover, the viability at 20 µM in data set [1] turned out to be 99.4%.

As for `Cc1cc(/C=C/C(=O)c2cc(Br)ccc2O)c(C)n1-c1ccc(C(F)(F)F)cc1` [Compound 10f, (E)-1-(5-Bromo-2-hydroxyphenyl)-3-(2,5-dimethyl-1-(4-(trifluoromethyl)phenyl)-1H-pyrrol-3-yl)prop-2-en-1-one], the IC50 in data set [2] (setting [3]) was 11.4 µM. Further, the viability at 20 µM in data set [1] was greater than 100%.

Regarding `Cc1cc(/C=C/C(=O)c2cc(Br)ccc2O)c(C)n1-c1cccc(C(F)(F)F)c1` [Compound 10e, (E)-1-(5-Bromo-2-hydroxyphenyl)-3-(2,5-dimethyl-1-(3-(trifluoromethyl)phenyl)-1H-pyrrol-3-yl)prop-2-en-1-one], the IC50 in data set [2] (setting [3]) is 4.09 µM. In addition, the viability at 20 µM in data set [1] is greater than 100%.

Take `N=C(N)c1ccc(OCCCCCOc2ccc(C(=N)N)cc2)cc1` [PMD, Pentamidine, reference compound]: the IC50 in data set [2] (read-out: T. b. brucei IC50 (positive control drug)) was determined as 0.00068 µM.

As for `Cc1cc(/C=C/C(=O)c2cc(Br)ccc2O)c(C)n1-c1ccccc1C(F)(F)F` [Compound 10g, (E)-1-(5-Bromo-2-hydroxyphenyl)-3-(2,5-dimethyl-1-(2-(trifluoromethyl)phenyl)-1H-pyrrol-3-yl)prop-2-en-1-one], the IC50 in data set [2] (setting [3]) amounted to 10 µM. Further, the viability at 20 µM in data set [1] was greater than 100%.

`Cc1cc(/C=C/C(=O)c2cc(Br)ccc2O)c(C)[nH]1` [Compound 10k, (E)-1-(5-Bromo-2-hydroxyphenyl)-3-(2,5-dimethyl-1H-pyrrol-3-yl)prop-2-en-1-one]: the “T. b. brucei IC50” value in data set [2] (setting [4]) is recorded as “complete loss of activity”. In data set [1], the viability at 20 µM was greater than 100%.

With `COc1ccc(-n2c(C)cc(/C=C/C(=O)c3cc(Br)ccc3O)c2C)cc1` [Compound 10j, (E)-1-(5-Bromo-2-hydroxyphenyl)-3-(1-(4-methoxyphenyl)-2,5-dimethyl-1H-pyrrol-3-yl)prop-2-en-1-one], the “T. b. brucei IC50” value in data set [2] (setting [4]) was “no activity”. The viability at 20 µM in data set [1] is greater than 100%.

Turning to `O=C(/C=C/c1c[nH]cn1)c1cc(Br)ccc1O` [Compound 11a, (E)-1-(5-Bromo-2-hydroxyphenyl)-3-(1H-imidazol-4-yl)prop-2-en-1-one], in data set [2] (setting [4]), the “T. b. brucei IC50” value is “no activity”. Moreover, the viability at 20 µM in data set [1] was 78.1%.

Regarding `Cc1cc(/C=C/C(=O)c2cc(Br)ccc2O)c(C)n1C1CCCCC1` [Compound 10l, (E)-1-(5-Bromo-2-hydroxyphenyl)-3-(1-cyclohexyl-2,5-dimethyl-1H-pyrrol-3-yl)prop-2-en-1-one], the IC50 in data set [2] (setting [3]) amounted to 11.5 µM. Besides, the viability at 20 µM in data set [1] came to 99.2%.

In turn, `Cc1cc(/C=C/C(=O)c2ccccc2)c(C)n1-c1ccc([N+](=O)[O-])cc1` [Compound 12, (E)-3-(2,5-Dimethyl-1-(4-nitrophenyl)-1H-pyrrol-3-yl)-1-phenylprop-2-en-1-one] showed a melting point of 169 to 174 °C. Also, the viability at 20 µM in data set [1] was 84.7%.

As to `Cc1cc(/C=C/C(=O)c2cc(Br)ccc2O)c(C)n1-c1ccc(Cl)cc1` [Compound 10c, (E)-1-(5-Bromo-2-hydroxyphenyl)-3-(1-(4-chlorophenyl)-2,5-dimethyl-1H-pyrrol-3-yl)prop-2-en-1-one], the IC50 in data set [2] (setting [3]) amounted to 40 µM. The viability at 20 µM in data set [1] was greater than 100%.

As to `Cc1ccc(C(=O)/C=C/c2cc(C)n(-c3ccc([N+](=O)[O-])cc3)c2C)cc1` [Compound 13, (E)-3-(2,5-Dimethyl-1-(4-nitrophenyl)-1H-pyrrol-3-yl)-1-(p-tolyl)prop-2-en-1-one], the melting point was in the range of 172 to 173 °C. Also, in data set [2] (setting [3]), the IC50 turned out to be 44.3 µM. In addition, in data set [1], the viability at 20 µM is greater than 100%.

Take `Cc1cc(/C=C/C(=O)c2cc(Br)ccc2O)c(C)n1-c1ccc(F)cc1` [Compound 10b, (E)-1-(5-Bromo-2-hydroxyphenyl)-3-(1-(4-fluorophenyl)-2,5-dimethyl-1H-pyrrol-3-yl)prop-2-en-1-one]: the IC50 in data set [2] (setting [3]) was determined as 6.9 µM. Besides, in data set [1], the viability at 20 µM is greater than 100%.

For the compound `Cc1cc(/C=C/C(=O)c2cc(Cl)ccc2O)c(C)n1-c1cccc([N+](=O)[O-])c1` [Compound 19, (E)-1-(5-Chloro-2-hydroxyphenyl)-3-(2,5-dimethyl-1-(3-nitrophenyl)-1H-pyrrol-3-yl)prop-2-en-1-one], in data set [2] (setting [3]), the IC50 worked out at 11.7 µM. For the same compound, the viability at 20 µM in data set [1] turned out to be 81.2%.

For the compound `Cc1cc(/C=C/C(=O)c2cc(Br)ccc2O)c(C)n1-c1cccc([N+](=O)[O-])c1` [Compound 10i, (E)-1-(5-bromo-2-hydroxyphenyl)-3-(2,5-dimethyl-1-(3-nitrophenyl)-1H-pyrrol-3-yl)prop-2-en-1-one], the IC50 in data set [2] (setting [3]) is less than 10 µM. Besides, the viability at 20 µM in data set [1] was 51.2%.

With `Cc1cc(/C=C/C(=O)c2cc(Br)ccc2O)c(C)n1-c1ccc(Br)cc1` [Compound 10d, (E)-1-(5-Bromo-2-hydroxyphenyl)-3-(1-(4-bromophenyl)-2,5-dimethyl-1H-pyrrol-3-yl)prop-2-en-1-one], in data set [2] (setting [3]), the IC50 turned out to be 10.5 µM. The viability at 20 µM in data set [1] is greater than 100%.

For the compound `COc1ccc2nc(Cl)c(/C=C/C(=O)c3cc(Br)ccc3O)cc2c1` [Compound 11b], the IC50 in data set [2] (setting [3]) amounted to 9.1 µM. Also, the viability at 20 µM in data set [1] was found to be 99.3%.

For the compound `Cc1cc(/C=C/C(=O)c2cc(Cl)ccc2O)c(C)n1-c1cccc(C(F)(F)F)c1` [Compound 18, (E)-1-(5-Chloro-2-hydroxyphenyl)-3-(2,5-dimethyl-1-(3-(trifluoromethyl)phenyl)-1H-pyrrol-3-yl)prop-2-en-1-one], in data set [2] (setting [3]), the IC50 stood at 9.3 µM. In addition, the viability at 20 µM in data set [1] came out at 79.9%.

Consider `COc1ccc(C(=O)/C=C/c2cc(C)n(-c3ccc([N+](=O)[O-])cc3)c2C)c(OC)c1` [Compound 16, (E)-1-(2,4-Dimethoxyphenyl)-3-(2,5-dimethyl-1-(4-nitrophenyl)-1H-pyrrol-3-yl)prop-2-en-1-one], for which, in data set [2] (setting [3]), the IC50 turned out to be 10.6 µM. Moreover, in data set [1], the viability at 20 µM is greater than 100%.

Regarding `COc1ccc(C(=O)/C=C/c2cc(C)n(-c3ccc([N+](=O)[O-])cc3)c2C)cc1` [Compound 15, (E)-3-(2,5-Dimethyl-1-(4-nitrophenyl)-1H-pyrrol-3-yl)-1-(4-methoxyphenyl)prop-2-en-1-one], the melting point was 157 to 158 °C. Also, the IC50 in data set [2] (setting [3]) came out at 12.3 µM. Also, the viability at 20 µM in data set [1] stood at 98.9%.

`Cc1cc(/C=C/C(=O)c2cc(Br)ccc2O)c(C)n1-c1ccccc1` [Compound 10a, (E)-1-(5-Bromo-2-hydroxyphenyl)-3-(2,5-dimethyl-1-phenyl-1H-pyrrol-3-yl)prop-2-en-1-one]: the IC50 in data set [2] (setting [3]) was determined as 11.5 µM. Further, in data set [1], the viability at 20 µM was greater than 100%.

On to `Cc1cc(/C=C/C(=O)c2cc(Br)ccc2O)c(C)n1-c1ccc([N+](=O)[O-])cc1` [Compound 10h, (E)-1-(5-Bromo-2-hydroxyphenyl)-3-(2,5-dimethyl-1-(4-nitrophenyl)-1H-pyrrol-3-yl)prop-2-en-1-one], for which the IC50 in data set [2] (setting [3]) is less than 6 µM. Further, in data set [1], the viability at 20 µM is greater than 100%.
